Experimental data taken from patent US10888500B2, “Particle size stabilization process” (INKE, S.A., priority 2016, dated 2021).

Assays:
[1] = Determination of presence of aggregates / agglomerated material (Malvern); type: physicochemical; conditions: after the curing step
Text: (§1) Determination of Presence of Aggregates (MALVERN).

[2] = for D50 determined by LDS after curing / D90 determined by LDS after curing: after curing at 130° C., storage at 25° C. for (at least) 1 month
Protocol: Laser Diffraction Spectrometry (LDS) was used to determine the Particle Size Distribution (PSD) and the determination of the presence of aggregates.
Particle Size Distribution ([…]).
The particle size distribution of sample was measured by using a Helos particle size analyser using a R1 lense with an Aspiros feeder using a dispersing dry process on 50 mg of glycopyrronium salt product.
as §1
The presence of aggregates in a sample was determined by using a Malvern Mastersizer 2000 instrument. For example: 100 mg of glycopyrronium salt were mixed with 5 ml of a previously prepared saturated solution of glycopyrronium salt in n-heptane containing 0.2 wt. % of Span-20. Ultrasonic treatment of the samples was performed for 2 minutes.

[3] = Amorphous content by Dynamic Vapor Sorption Analysis (DVS), water uptake method; type: physicochemical; conditions: after the curing step
Protocol: Dynamic Vapor Sorption Analysis (DVS):
The experiments were performed in a Mettler Toledo TGA/DSC 1 LF instrument equipped with a LF SDTA FRS2 sensor and coupled with a Modular Humidity Generator MHG 32. The samples were weighted into 150 μL platinum crucibles. Data collection and evaluation was done with STARe software. A water uptake method was used to determine the amorphous content. In this method, the relative mass difference at a specific relative humidity (20%) prior to and post humidity-induced crystallization was compared. Assuming no solvate or hydrate formation, the difference in uptake between partially amorphous and recrystallized material is directly proportional to the initial amount of amorphous material in the sample. A purely amorphous sample (reference sample) was used as amorphous standard. The water uptake of a sample is proportional to the amount of amorphous content present in the sample.

[4] = between pH 1 and 14; cited from earlier work
[5] = after curing at 70° C., vacuum, 6 hours, FIG. 1: after storage at 25° C. for 1 month

| Compound | agglomerated material observed [1] | D50 determined by LDS after curing [2] [μm] | D90 determined by LDS after curing [2] [μm] | amorphous content as determined by DVS (in words) [3] | D50 after the curing step (agglomerated material, FIG. 1) [2, 5] [μm] | D90 after the curing step (agglomerated material, FIG. 1) [2, 5] [μm] | amorphous content as determined by DVS [3] [wt. %] | ionization [4] |
| --- | --- | --- | --- | --- | --- | --- | --- | --- |
| glycopyrronium bromide [Example 3] | no agglomerated material was observed | 1.46 | 3.36 | No amorphous content was detected | – | – | – | – |
| glycopyrronium bromide [Example 4] | no agglomerated material was observed | 1.45 | 3.26 | No amorphous content was detected | – | – | – | – |
| glycopyrronium bromide [Example 1, reference compound] | significant amount of agglomerated material | – | – | – | 60.27 | 888.59 | 1.8 | – |
| glycopyrronium bromide [Example 5] | no agglomerated material was observed | 1.43 | 3.28 | No amorphous content was detected | – | – | – | – |
| glycopyrronium bromide [Example 6] | no agglomerated material was observed | 1.48 | 3.11 | No amorphous content was detected | – | – | – | – |
| glycopyrronium bromide [Example 2] | no agglomerated material was observed | 1.45 | 3.39 | No amorphous content was detected | – | – | – | – |
| C[N+]1(C)CC[C@@H](OC(=O)[C@@](O)(c2ccccc2)C2CCCC2)C1 (racemic) [Glycopyrronium bromide, (3RS)-3-[(2SR)-(2-cyclopentyl-2-hydroxy-2-phenylacetyl)oxy]-1,1-dimethylpyrrolidinium bromide] | – | – | – | – | – | – | – | completely ionized |
